# Assay results as given in article PMC7470111, “Escherichia coli γ-carbonic anhydrase: characterisation and effects of simple aromatic/heterocyclic sulphonamide inhibitors” (Journal of Enzyme Inhibition and Medicinal Chemistry, 2020).
# Target: T1, EcoCAγ (Escherichia coli, UniProt P0A9W9)
# T1 construct: gene yrdA; recombinant full-length WP_009008373.1, N-terminal His-tag, 72 extra N-terminal residues versus YrdA
# T1 sequence (P0A9W9 1-184): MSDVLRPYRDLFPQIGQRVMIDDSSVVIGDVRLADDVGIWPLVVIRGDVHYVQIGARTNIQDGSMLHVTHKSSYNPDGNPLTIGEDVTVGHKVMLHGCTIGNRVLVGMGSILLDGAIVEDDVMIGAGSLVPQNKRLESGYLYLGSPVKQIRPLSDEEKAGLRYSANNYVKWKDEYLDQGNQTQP
# Experiment: biochemical
# Conditions: not given
# Procedure: The CO2 hydration activity performed by the EcoCAγ was monitored using an Applied Photophysics stopped-flow instrument. […] To determine the kinetic parameters by Lineweaver-Burk plots and the inhibition constants, a concentration of CO2 between 1.7 to 17 mM was used. At least six measurements of the original 5–10% reaction were used to assess the initial velocity for each inhibitor. The uncatalyzed rates were identically determined and detracted from the total observed rates. Stock inhibitor solutions (10–100 mM) were prepared in distilled-deionized water and dilutions up to 0.01 mM were done with the buffer test. Inhibitor and enzyme solutions were preincubated together for 15 min at room temperature prior to assay, in order to allow for the formation of the E-I complex or for the eventual active site mediated hydrolysis of the inhibitor. The inhibition constants were obtained by non-linear least-squares methods using PRISM 6 and the Cheng-Prusoff equation, as reported earlier[12]^,[14]^,[68], and represent the mean from at least three different determinations. h CAI and hCA II were recombinant enzymes obtained in-house. The synthetic E. coli gene encoding for the EcoCAγ (Accession number: WP_009008373.1) was synthesised by the Invitrogen GeneArt (ThermoFisher Scientific), a company specialised in gene synthesis, and cloned into the expression vector pET100D-Topo/γ-CA. Briefly, the gene was designed to produce the recombinant EcoCAγ as fusion proteins with a tag containing nucleotides encoding for six histidines (His-Tag) at the amino terminus of neosynthetized recombinant protein. Competent E. coli BL21 (DE3) codon plus cells (Agilent) were transformed as described by Del Prete et al.. Isopropyl β-D-1-thiogalactopyranoside (IPTG) at the concentration of 1 mM was added to the cellular culture to overexpress the recombinant EcoCAγ. After growth, the cells were harvested and disrupted by sonication. Cellular extract was purified using a nickel affinity column (His-Trap FF), which allows the interaction between the matrix functionalised with Ni^2+ ions and the His-Tag at the N-terminus of the protein. The HisTrap column (1 ml) was equilibrated with 20 ml equilibration buffer (50 mM Tris, 20 mM imidazole and 150 mM sodium chloride, pH 7.5) at 1 ml/min. The supernatant from the cellular lysate was loaded onto the column at 1 ml/min, and eluted from the column by fluxing imidazole (300 mM) at a flow of 0.5 ml/min in a buffer composed of 50 mM Tris and 300 mM sodium chloride, pH 7.5. The recovered EcoCAγ was 90% pure. The protein quantification was carried out by Bradford method (BioRAD).
row,SMILES,Ki
1,NS(=O)(=O)c1cccc(S(N)(=O)=O)c1 [compound 3],246 nM
2,Cc1ccc(S(N)(=O)=O)cc1 [compound 4],221 nM
3,NCCc1ccc(S(N)(=O)=O)cc1 [compound 6],622 nM
4,Nc1ccc(S(N)(=O)=O)cc1F [compound 7],605 nM
5,Nc1ccc(S(N)(=O)=O)cc1Cl [compound 8],671 nM
6,Nc1ccc(S(N)(=O)=O)cc1Br [compound 9],718 nM
7,NS(=O)(=O)c1cc(Cl)cc(Cl)c1O [compound 10],2580 nM
8,Nc1cc(C(F)(F)F)c(S(N)(=O)=O)cc1S(N)(=O)=O [compound 11],1780 nM
9,Nc1cc(Cl)c(S(N)(=O)=O)cc1S(N)(=O)=O [compound 12],1950 nM
10,Nc1nnc(S(N)(=O)=O)s1 [compound 13],197 nM
11,Cn1nc(S(N)(=O)=O)sc1=N [compound 14],712 nM
12,NS(=O)(=O)c1ccc(O)cc1 [compound 15],1010 nM
13,NS(=O)(=O)c1ccc(CO)cc1 [compound 16],4240 nM
14,NS(=O)(=O)c1ccc(CCO)cc1 [compound 17],1970 nM
15,NS(=O)(=O)c1ccc(C(=O)O)cc1 [compound 18],2060 nM
16,Nc1nccc(Nc2ccc(S(N)(=O)=O)cc2)n1 [compound 19],1890 nM
17,Nc1ccc(S(=O)(=O)Nc2nnc(S(N)(=O)=O)s2)cc1 [compound 20],883 nM
18,Nc1ccc(S(=O)(=O)Nc2ccc(S(N)(=O)=O)cc2)cc1 [compound 22],3500 nM
19,Nc1ccc(S(=O)(=O)NCc2ccc(S(N)(=O)=O)cc2)cc1 [compound 23],4040 nM
20,Nc1ccc(S(=O)(=O)NCCc2ccc(S(N)(=O)=O)cc2)cc1 [compound 24],4260 nM

# Same assay, conditions: inhibitor
row,SMILES,Ki
1,Nc1cccc(S(N)(=O)=O)c1 [compound 1],314 nM
2,NS(=O)(=O)c1ccc(CCNS(=O)(=O)c2ccc([N+](=O)[O-])cc2CO)cc1 [compound 21],819 nM
